Experimental data as given in patent USRE47193E1, “Selectively substituted quinoline compounds” (EISAI R&D MANAGEMENT CO., LTD., priority 2013, dated 2019).

System: IFN-regulated genes
Assay: Interferon gene expression in whole blood (qPCR TLDA panel, IFN score), Pristane model
Type: in vivo, mouse
Conditions: for disease up-regulated IFN-regulated genes reduced by treatment vs. vehicle: 13 weeks of treatment, Student's t-test
Protocol: FIG. 3A through FIG. 3E show results of testing compound ER-899742 in the Pristane: DBA/1 strain lupus disease model. Figure Legend: Female DBA/1 mice at 9 weeks of age were given an intraperitoneal injection of 0.5 ml pristane or PBS. At 9 weeks post-pristane animals were bled for auto-antibody titers. Once-a-day oral dosing with Vehicle (Veh; 0.5% methyl-cellulose) or 33 mg/kg, 100 mg/kg, or 300 mg/kg of ER-899742 was begun 10 weeks after pristane injection and continued for 13 weeks of treatment. Mice were euthanized after 13 weeks of compound treatment, and anti-dsDNA (FIG. 3A), anti-Sm/nRNP (FIG. 3B), anti-histone (FIG. 3C) and anti-RiboP (FIG. 3D) titers were measured in blood plasma samples by ELISA (statistical significance of treatment versus vehicle determined by ANOVA with Dunnett's post-test). (FIG. 3E) The expression of IFN-regulated genes in whole blood was measured by a qPCR panel after 13 weeks of treatment with 300 mg/kg of ER-899742, and an IFN gene signature score was calculated (see Pharmacology Materials and Methods section for details regarding IFN score calculation).
FIG. 7A through FIG. 7G show the effect of dosing with ER-899742 in Pristane-induced disease in DBA/1J mice. Figure Legend: Female DBA/1 mice at 9 weeks of age were given an intraperitoneal injection of 0.5 ml pristane or PBS. At 10 weeks post-pristane animals were bled for autoantibody titers. Once-a-day oral dosing with Vehicle (Veh; 0.5% methyl-cellulose) or 33 mg/kg, or 300 mg/kg of ER-899742 was begun 11 weeks after pristane injection and continued for 14 weeks of treatment. Mice were euthanized after 14 weeks of compound treatment, and anti-dsDNA (FIG. 7A), anti-RiboP (FIG. 7B), anti-Sm/nRNP (FIG. 7C), and anti-histone (FIG. 7D) titers were measured in blood plasma samples by ELISA (statistical significance of treatment versus vehicle determined by ANOVA with Dunnett's post-test). The same plasma was used to measure total IgG titers by ELISA at the end of dosing (FIG. 7E). […] Pristane-treated mice in this experiment developed arthritis, with swollen joints in the rear paws. Arthritis scores were assigned according to severity, each paw was scored on a scale of 0-4 based on signs of swelling and inflammation. Scores were summed for the two hind paws assessed on each animal, and graphed in FIG. 7F with statistical assessment as for ELISA titers above.
Assessment of interferon gene expression in whole blood. The expression of IFN-regulated genes in whole blood was measured by qPCR. Briefly, mice were euthanized, blood was collected via the vena cava, and 100 ul was preserved in tubes containing RNAlater (Ambion, Austin Tex.). Total RNA was isolated using the Mouse RiboPure Blood RNA Isolation Kit (Ambion). RNA concentrations were determined using a NanoDrop ND-1000 spectrophotometer (Thermo Scientific, Waltham Mass.). First strand cDNA was synthesized from 100 ng total RNA using SuperScript® VILO™ Master Mix (Life Technologies, Grand Island, N.Y.). After reverse transcription, cDNA was diluted with nuclease-free water and mixed with TaqMan® Fast Advanced Master Mix (Applied Biosystems). The mixture was then applied to a custom TaqMan® Low Density Array (TLDA) manufactured by Applied Biosystems, and qPCR was performed on the ABI 7900HT Fast Real-time PCR System (Applied Biosystems). Raw data was collected using RQ Manager 1.2.1 (Applied Biosystems) and analyzed using GeneData Analyst 2.2 software (GeneData).
The TLDA panel contained as many as 45 target genes chosen from Table 9 below, and 3 housekeeping genes for normalization. The housekeeping gene Hprt1 was chosen for normalization based on coefficient-of-variation. Relative quantities were determined for the target genes and used to calculate a fold change for each diseased mouse relative to the non-diseased control group receiving intraperitoneal PBS injection only. […]

| SMILES | interferon score, treated vs vehicle-treated (13 weeks of treatment with 300 mg/kg) | disease up-regulated IFN-regulated genes reduced by treatment vs. vehicle | interferon score, treated vs vehicle-treated (14 weeks of treatment experiment (FIG. 7)) | disease-related interferon-modulated genes downregulated (14 weeks of treatment experiment (FIG. 7G)) | expression of IFN-modulated genes in whole blood (Pristane model, summary of key findings) |
| --- | --- | --- | --- | --- | --- |
| C[C@@H]1CN(c2ccc(C#N)c3ncccc23)C[C@H](C(=O)N[C@H]2CNC[C@H]2F)O1.Cl [ER-899742, (2R,6R)-4-(8-cyanoquinolin-5-yl)-N-[(3S,4R)-4-fluoropyrrolidin-3-yl]-6-methylmorpholine-2-carboxamide hydrochloride] | no significant difference | six genes were significantly reduced | no significant difference | downregulation of five out of 28 disease-related interferon-modulated genes | Decreased expression of some IFN-modulated genes |
| C[C@@H]1CN(c2ccc(C#N)c3ncccc23)C[C@H](C(=O)NC2CCN(C)CC2)O1 [ER-899464, (2R,6R)-4-(8-cyanoquinolin-5-yl)-6-methyl-N-(1-methylpiperidin-4-yl)morpholine-2-carboxamide] | – | none of the disease up-regulated genes shown in FIG. 3B were affected | – | – | – |
